From PMC10819888, “Benzimidazole-Based Derivatives as Apoptotic Antiproliferative Agents: Design, Synthesis, Docking, and Mechanistic Studies” (Molecules, 2024)
Where two headings read alike, the source gives them in different places.

Legend:
BRAF^V600E [1] = system: BRAF^V600E; parameters: method as in PMID 18942827; conditions: cited from earlier work
four cancer cell lines = system: four cancer cell lines; parameters: method as in PMID 37716963; conditions: against four cancer cell lines; cited from earlier work
BRAF^V600E [2] = system: BRAF^V600E; parameters: method as in PMID 37716963; conditions: cited from earlier work
Bcl-2 = Bcl-2 inhibition assay; type: cell-based, human; conditions: PC-3 cell line
Method: (§1) For more details, see Supplementary Materials. […]
4.2.6. Bcl-2 inhibition assay
Mix all reagents thoroughly without foaming before use. Wash the microwells twice with approximately 300 μL Wash Buffer per well with thorough aspiration of microwell contents between washes. Take caution not to scratch the surface of the microwells.
After the last wash, empty the wells and tap microwell strips on absorbent pad or paper towel to remove excess Wash Buffer. Use the microwell strips immediately after washing or place upside down on a wet absorbent paper for not longer than 15 minutes.
Add 100 μL of Sample Diluent in duplicate to all standard wells and to the blank wells. Prepare standard (1:2 dilution) in duplicate ranging from 32 ng/mL to 0.5 ng/mL. Add 100 μL of Sample Diluent, in duplicate, to the blank wells.
Add 80 μL of Sample Diluent, in duplicate, to the sample wells. Add 20 μL of each Sample, in duplicate, to the designated wells. Add 50 μL of diluted biotin-conjugate to all wells, including the blank wells. Cover with a plate cover and incubate at room temperature, on a microplate shaker at 100 rpm if available, for 2 hours. Remove plate cover and empty the wells. Wash microwell strips 3 times as described in step 2. Add 100 μL of diluted Streptavidin-HRP to all wells, including the blank wells. Cover with a plate cover and incubate at room temperature, on a microplate shaker at 100 rpm if available, for 1 hour. Remove plate cover and empty the wells. Wash microwell strips […]
3 times as described in step 2. Proceed to the next step. Pipette 100 μl of mixed TMB Substrate Solution to all wells, including the blanks. Incubate the microwell strips at room temperature (18° to 25°C) for about 15 minutes, if available on a rotator set at 100 rpm. Avoid direct exposure to intense light. The point, at which the substrate reaction is stopped, is often determined by the ELISA reader. Many ELISA readers record absorbance only up to 2.0 O.D. Therefore, the color development within individual microwells must be watched by the person running the assay and the substrate reaction stopped before positive wells are no longer properly detectable. Stop the enzyme reaction by quickly pipetting 100 μL of Stop Solution into each well, including the blank wells. It is important that the Stop Solution is spread quickly and uniformly throughout the microwells to completely inactivate the enzyme. Results must be read immediately after the Stop Solution is added or within one hour if the microwell strips are stored at 2 - 8°C in the dark. Read absorbance of each microwell on a spectrophotometer using 450 nm as the primary wavelength.
4.3. Statistical analysis
Computerized Prism 5 program was used to statistically analyzed data using one-way ANOVA test followed by Tukey’s as post ANOVA for multiple comparison at P ≤.05.
Data were presented as mean ± SEM.

Bax = Bax activation assay; type: cell-based, human; conditions: PC-3 cell line
Method: For more details, see Supplementary Materials.
4.2.5. Bax activation assay
Bring all reagents, except the human Bax-α Standard, to room temperature for at least 30 minutes prior to opening. The human Bax -α Standard solution should not be left at room temperature for more than 10 minutes. All standards, controls and samples should be run in duplicate. Refer to the Assay Layout Sheet to determine the number of wells to be used and put any remaining wells with the desiccant back into the pouch and seal the ziploc. Store unused wells at 4 °C. Pipet 100 μL of Assay Buffer into the S0 ( 0 pg/mL standard) wells. Pipet 100 μL of Standards #1 through #6 into the appropriate wells. Pipet 100 μL of the Samples into the appropriate wells. Tap the plate gently to mix the contents. Seal the plate and incubate at room temperature on a plate shaker for 1 hour at ~500 rpm. Empty the contents of the wells and wash by adding 400 μL of wash solution to every well. Repeat the wash 4 more times for a total of 5 washes. After the final wash, empty or aspirate the wells and firmly tap the plate on a lint fr ee paper towel to remove any remaining wash buffer. Pipet 100 μL of yellow Antibody into each well, except the Blank. Seal the plate and incubate at room temperature on a plate shaker for 1 hour at ~500 rpm. Empty the contents of the wells and wash by addi ng 400 μL of […]
the final wash, empty or aspirate the wells and firmly tap the plate on a lint free paper towel to remove any remaining wash buffer. Add 100 μL of blue Co njugate to each well, except the Blank. Seal the plate and incubate at room temperature on a plate shaker for 30 minutes at ~500 rpm. Empty the contents of the wells and wash by adding 400 μL of wash solution to every well. Repeat the wash 4 more times for a total of 5 washes .
After the final wash, empty or aspirate the wells and firmly tap the plate on a lint free paper towel to remove any remaining wash buffer. Pipet 100 μL of Substrate Solution into each well. Incubate for 30 minutes at room temperature on a plate shaker at ~500 rpm. Pipet 100 μL Stop Solution to each well. Blank the plate reader against the Blank wells, read the optical density at 450 nm. Calculate the average net Optical Density (OD) bound for each standard and sample by subtracting the average Blank OD from the average OD for each standard and sample. Using linear graph paper, plot the Average Net OD for each standard versus Bax concentration in each standard.
Approximate a straight line through the points. The concentration of Bax in the unknowns can be determined by interpolation. […]

caspase-3 = assay: Caspase-3 activation assay; type: cell-based, human; conditions: PC-3 cell line
Source text: Caspase-3 is a key caspase that cleaves numerous cell proteins, resulting in apoptosis. […] They elevated the protein caspase-3 in the PC-3 cancer cell line by around seven to nine times compared to untreated control cells.
as §1
4.2.3. Caspase-3 activation assay
Allow all reagents to reach room temperature before use. Gently mix all liquid reagents prior to use. Determine the number of 8-well strips needed for the assay. Insert these in the frame(s) for current use. Add 100 μl of the Standard Diluent Buffer to the zero standard wells. Well(s) reserved for chromogen blank should be left empty. Add 100 μl of standards and controls or diluted samples to the appropriate microtiter wells. The sample dilution chosen should be optimized for each experimental system. Tap gently on side of plate to mix. Cover wells with plate cover and incubate for 2 hours at room temperature. Thoroughly aspirate or decant solution from wells and discard the liquid, Wash wells 4 times. Pipette 100 μl of Caspase-3 (Active) Detection Antibod y solution into each well except the chromogen blank(s). Tap gently on the side of the plate to mix.
Cover plate with plate cover and incubate for 1 hour at room temperature. Thoroughly aspirate or decant solution from wells and discard the liquid, Wash well s 4 times. Add 100 μl Anti-Rabbit IgG HRP Working Solution to each well except the chromogen blank(s). Prepare the working dilution as described in Preparing IgG HRP. Cover wells with the plate cover and incubate for 30 minutes at room temperature. Thoroughly aspirate or decant solution from wells and discard the liquid. Wash wells 4 times. Add 100 μl of Stabilized Chromogen to each well. The liquid in the wells will begin to turn blue. Incubate for 30 minutes at room temperature and in the dark. The incuba tion time for chromogen substrate is often determined by the microtiter plate reader used. Many plate readers have the capacity to record a maximum optical density (O.D.) of 2.0. The O.D. values should be monitored, and the substrate reaction stopped befor e the O.D. of […]
the positive wells exceeds the limits of the instrument. The O.D. values at 450 nm can only be read after the Stop Solution has been added to each well. If using a reader that […]
100 μl of Stop Solution to each well. Tap side of plate gently to mix. The solution in the wells should change from blue to yellow. Read the absorbance of each well at 450 nm having blanked the plate reader against a chromogen blank composed of 100 μl each of Stabilized Chromogen and Stop Solution. Read the plate within 2 hours after adding the Stop Solution. Use a curve fitting software to generate the standard curve. A four-parameter algorithm provides the best standard curve fit. Read the concentrations for unknown samples and controls from the standard curve. Multiply value(s) obtained for sample(s) by the appropriate dilution factor to correct for the dilution in step 3. Samples producing signals greater than that of the highest standard should be diluted in Standard Diluent Buffer and reanalyzed. […]
A standard curve is […]
prepared from 7human Caspase-8 standard dilutions and human Caspase-8 concentration determined.

[3] = Figure 1, read-out: IC50 BRAF inhibitor
[4] = text b8, read-out: IC50 anti-BRAF^V600E

COC(=O)c1ccc2[nH]c(-c3ccc(Cl)cc3)nc2c1 [Compound 2]
IC50 (BRAF^V600E [1]; [3]): 0.002 µM
IC50 (BRAF^V600E [1]; [4]): 2 µM

NNC(=O)c1ccc2[nH]c(-c3ccc(Cl)cc3)nc2c1 [Compound 3]
IC50 (BRAF^V600E [1]; [3]): 0.014 µM
IC50 (BRAF^V600E [1]; [4]): 14 µM

COc1ccc(-c2nc3cc(-c4nnc(SCC(=O)Nc5ccc(C(=O)/C=C/c6ccccc6)cc5)o4)ccc3[nH]2)cc1 [Compound 4]
GI50 (four cancer cell lines): 1.2 µM
IC50 (BRAF^V600E [2]): 1.7 ± 0.2 µM

CN[C@@H]1C[C@H]2O[C@@](C)([C@@H]1OC)n1c3ccccc3c3c4c(c5c6ccccc6n2c5c31)C(=O)NC4 [staurosporine, reference compound]
Bcl-2 Conc (Bcl-2): 1.00 ng/mL
Bax Conc (Bax): 170 pg/mL
Bax increase compared to untreated PC-3 cancer cells (Bax): 24 fold
Bax level (Bax): 170 pg/mL
Caspase-3 Conc (caspase-3): 260 ± 5 pg/mL
caspase-3 protein level (caspase-3): 260 ± 5 pg/mL
